Source: patent US9469608B2, “Thrombin inhibitors” (Merck Sharp & Dohme Corp., priority 2012, dated 2016)

molecular target: human α-thrombin (Homo sapiens (Human), UniProt P00734); assay: In vitro assay for determining proteinase inhibition (thrombin Ki); type: biochemical; details: not given
Procedure: NMR determinations were made using 400 MHz field strength. Ki data was obtained according to the procedure described in Lewis, et al. Thromb. […] Reactions sensitive to moisture or air were performed under nitrogen or argon using anhydrous solvents and reagents. […] Typically, the analytical LC-MS system used consisted of a Waters ZQ platform with electrospray ionization in positive ion detection mode with an Agilent 1100 series HPLC with autosampler. The column was usually a Water Xterra MS C18, 3.0×50 mm, 5 μm. The flow rate was 1 mL/min, and the injection volume was 10 μL. UV detection was in the range 210-400 nm. […] Preparative HPLC purifications were usually performed using a mass spectrometry directed system. […] The mobile phases consisted of mixtures of acetonitrile (10-100%) in water containing 0.1% TFA. Flow rates were maintained at 50 mL/min, the injection volume was 1800 μL, and the UV detection range was 210-400 nm. Mobile phase gradients were optimized for the individual compounds. Reactions performed using microwave irradiation were normally carried out using an Emrys Optimizer manufactured by Personal Chemistry, or an Initiator manufactured by Biotage. Concentration of solutions was carried out on a rotary evaporator under reduced pressure. Flash chromatography was usually performed using a Biotage Flash Chromatography apparatus (Dyax Corp.) on silica gel ([…], 60 Å pore size) in pre-packed cartridges of the size noted. ^1H NMR spectra were acquired at 500 MHz spectrometers in CDCl3 solutions unless otherwise noted. Chemical shifts were reported in parts per million (ppm). Tetramethylsilane (TMS) was used as internal reference in CD3Cl solutions, and residual CH3OH peak or TMS was used as internal reference in CD3OD solutions. Coupling constants (J) were reported in hertz (Hz). Chiral analytical chromatography was performed on one of Chiralpak AS, Chiralpak AD, Chiralcel OD, Chiralcel IA, or Chiralcel OJ columns (250×4.6 mm) (Daicel Chemical Industries, Ltd.) with noted percentage of either ethanol in hexane (% Et/Hex) or isopropanol in heptane (% IPA/Hep) as isocratic solvent systems. Chiral preparative chromatography was conducted on one of Chiralpak AS, Chiralpak AD, Chiralcel OD, Ciralcel IA, or Chiralcel OJ columns (20×250 mm) (Daicel Chemical Industries, Ltd.) with desired isocratic solvent systems identified on chiral analytical chromatography or by supercritical fluid (SFC) conditions. Celite® (Fluka) diatomite is diatomaceous earth, and can be referred to as “celite”.
Relevant in vitro assays are referenced in Morrissette, et al., Bioorg. […] The assays were carried out at 25° C. in 0.05 M TRIS buffer pH 7.4, 0.15 M NaCl, 0.1% PEG. Trypsin assays also contained 1 mM CaC12.
Concentrations of stock solutions of Z-GPR-afc were determined from measurements of absorbance at 380 nm of the 7-amino-4-trifluoromethyl coumarin produced upon complete hydrolysis of an aliquot of the stock solution by thrombin.
Activity assays were performed by diluting a stock solution of substrate at least tenfold to a final concentration ≦0.1 Km into a solution containing enzyme or enzyme equilibrated with inhibitor. Times required to achieve equilibration between enzyme and inhibitor were determined in control experiments. Initial velocities of product formation in the absence (Vo) or presence of inhibitor (Vi) were measured. Assuming competitive inhibition, and that unity is negligible compared Km/[S], [I]/e, and [I]/e (where [S], [I], and e respectively represent the total concentrations, of substrate, inhibitor and enzyme), the equilibrium constant (Ki) for dissociation of the inhibitor from the enzyme can be obtained from the dependence of Vo/Vi on [I] shown in the following equation.

Compound | Ki [nM]
NCc1ccc(Cl)cc1CNC(=O)[C@@H]1CCN1C(=O)C1OCc2ccccc21 (stereo partly drawn) [Compound 33-7, (2S)-N-{2-(Aminomethyl)-5-chlorobenzyl}-1-(1,3-dihydroisobenzofuran-1-carbonyl)azetidine-2-carboxamide-2,2,2-trifluoroacetate] | 39
NCc1ccc(Cl)cc1CNC(=O)[C@@H]1CCN1C(=O)C1(O)CCc2ncccc21 (stereo partly drawn) [Compound 26-12, (2S)-N-{2-(Aminomethyl)-5-chlorobenzyl}-1-(5-hydroxy-6,7-dihydro-5H-cyclopenta[b]pyridine-5-carbonyl)azetidine-2-carboxamide bis(2,2,2-trifluoroacetate)] | 325

same assay, conditions: 25° C., 0.05 M TRIS buffer pH 7.4, 0.15 M NaCl, 0.1% PEG; competitive inhibition assumed

Ki [nM] | Compound
77 | NCc1ccc(Cl)cc1CNC(=O)[C@@H]1CCCN1C(=O)C1NCc2ccccc21 (single isomer, unassigned) [Compound 23-4a, bis(2,2,2-trifluoroacetate)]
13 | NCc1ccc(Cl)cc1CNC(=O)[C@@H]1CCCN1C(=O)c1cc(C(O)c2cccnc2)c[nH]1 (stereo partly drawn) [Compound 9-2, (2S)-N-{2-(Aminomethyl)-5-chlorobenzyl}-1-[4-{hydroxy(pyridine-3-yl)methyl}-1H-pyrrole-2-carbonyl]pyrrolidine-2-carboxamide]
17 | NCc1ccc(Cl)cc1CNC(=O)[C@@H]1CCCN1C(=O)c1cc(Cc2ccncc2)c[nH]1 [Compound 7-1, (S)—N-{2-(Aminomethyl)-5-chlorobenzyl}-1-{4-(pyridin-4-ylmethyl)-1H-pyrrole-2-carbonyl}pyrrolidine-2-carboxamide-bis(2,2,2-trifluoroacetate)]
2.5 | NCc1ccc(Cl)cc1CNC(=O)[C@@H]1CCN1C(=O)C1NCc2ccccc21 (stereo partly drawn) [Compound 34-7, (2S)-N-{2-(aminomethyl)-5-chlorobenzyl}-1-(isoindoline-1-carbonyl)azetidine-2-carboxamide bis(2,2,2-trifluoroacetate)]
93 | Cc1ccc(C(=O)N2CCC[C@@]2(C)C(=O)NCc2cc(Cl)ccc2CN)[nH]1 [Compound 45, (S)-N-(2-(aminomethyl)-5-chlorobenzyl)-2-methyl-1-(5-methyl-1H-pyrrole-2-carbonyl)pyrrolidine-2-carboxamide]
400 | NCc1ccc(Cl)cc1CNC(=O)[C@@H]1CCCN1C(=O)C1c2ccccc2CS1(=O)=O (stereo partly drawn) [Compound 22-10, (2S)-N-{2-(Aminomethyl)-5-chlorobenzyl}-1-(2,2-dioxido-1,3-dihydrobenzo[a]thiophene-1-carbonyl)pyrrolidine-2-carboxamide-2,2,2-trifluoroacetate-2,2,2-trifluoroacetate]
110 | NCc1ccc(Cl)cc1CNC(=O)[C@@H]1CCN1C(=O)C1CNc2ccccc21 (stereo partly drawn) [Compound 35-7, (2S)-N-{2-(Aminomethyl)-5-chlorobenzyl}-1-(indoline-3-carbonyl)azetidine-2-carboxamide bis(2,2,2-trifluoroacetate)]
25 | CC(C)(C)[C@@H](CCO)C(=O)N1CCC[C@H]1C(=O)NCc1cc(Cl)ccc1CN [Compound 1-12, (S)—N-[2-(Aminomethyl)-5-chlorobenzyl]-1-[(R)-2-(2-hydroxyethyl)-3,3-dimethylbutanoyl]pyrrolidine-2-carboxamide-2,2,2-trifluoroacetate]
1.1 | NCc1ccc(Cl)cc1CNC(=O)[C@@H]1CCCN1C(=O)C1NCc2ccccc21 (single isomer, unassigned) [Compound 23-4b, bis(2,2,2-trifluoroacetate)]

Compound | Ki [nM]
O=C(NCc1cc(Cl)ccc1-n1cnnn1)[C@@H]1CCCN1C(=O)C1(O)CCc2cccnc21 (stereo partly drawn) [Compound 36-3, (2S)-N-{5-Chloro-2-(1H-tetrazol-1-yl)benzyl}-1-(7-hydroxy-6,7-dihydro-5H-cyclopenta[b]pyridine-7-carbonyl)pyrrolidine-2-carboxamide] | 2.5
NCc1ccc(Cl)cc1CNC(=O)[C@@H]1CCCN1C(=O)C1(O)CCCc2ncccc21 (stereo partly drawn) [Compound 30-6, (2S)-N-{2-(Aminomethyl)-5-chlorobenzyl}-1-(5-hydroxy-5,6,7,8-tetrahydroquinoline-5-carbonyl)pyrrolidine-2-carboxamide bis(2,2,2-trifluoroacetate)] | 11
